Laboratory results from patent publication US11944605B2, “Rapamycin analogs and uses thereof” (Janssen Pharmaceutica NV, priority 2018, dated 2024).
pIC50: −log10 of the molar value.

Experiments:
[1] = system: pS6K1 (p-p70 S6 Kinase (Thr389)) in MCF-7 cells; assay: AlphaLISA Ultra pS6K1 Assay; type: cell-based; conditions: Homo sapiens, 1.5 h; MCF7 cells, 90 min
Experimental: AlphaLISA Ultra pS6K1 Assay
1. Seed MCF-7 cells in Corning 3701 plate and incubate for 20˜24 hour. 12,000˜16,000 cells will be seeded in 36 μL medium per well.
2. Change the culture medium with fresh medium and incubate for another 2 hours.
3. Add 12 μL (4×) compounds into the cell plate by HAMILTON. Final DMSO concentration is 0.5%. Incubate for 90 minutes.
4. Aspirate […] by HAMILTON, 10 μL rest per well.
5. Add 10 μL 2× lysis buffer using HAMILTON; total volume in wells is 20 μL. Allow cells to shake for 30 min. Cover plate by plastic foil and store plate at −80° C. up to analysis.
6. Thaw cell lysate at RT and transfer 10 μL lysate to assay plate (Optiplate-384).
7. Add 5 μL acceptor beads into assay plate and incubation for 2 hours
8. Add 5 μL donor beads and incubation for 2 hours
9. Count the plate by EnSpire Multimode Plate Reader

mTORC1 over mTORC2 = assay: mTORC1 selectivity over mTORC2 at 24 hrs (Western blot based pS6K1 and pAKT assay); type: cell-based; conditions: 24 hrs
Experimental: Western Blot Based pS6K1 and pAKT Assay at 24 and 48 Hour Timepoints
1. Seed six well plate with 500,000 PC3 cells per well and incubate for 20˜24 hour.
2. Add compounds into the cell plate. Incubate for 24 to 48 hours.
4. Plate is placed on ice and the media is removed via aspiration. The wells are washed with 1 mL of 1× PBS and then fully aspirated.
5. 110 μL of 1% Triton Lysis Buffer is added and each well is scraped vigorously.
6. Cell homogenates are transferred to 1.5 mL eppendorf tubes on ice and spun down at 4° C. for 10 minutes at 10,000 rpm.
9. The membranes were washed 3× with TBS-T with a 5 minute incubation between each wash then incubated with secondary antibody (LiCor IRDye 800 Donkey Anti Rabbit) for at least 30 minutes.
10. The membranes were washed 3× with TBS-T with a 5 minute incubation between each wash.
11. The gels were then incubated for 5 minutes with PBS at room temperature then imaged using a Li-Cor.
“N/A” stands for “not assayed.”

| SMILES | pIC50 [1] | mTORC1 selective @ 24 hrs (mTORC1 over mTORC2) |
| --- | --- | --- |
| CO[C@@H]1C[C@H](C[C@@H](C)[C@@H]2CC(=O)[C@H](C)/C=C(\C)[C@@H](O)[C@@H](OC)C(=O)[C@H](C)C[C@H](C)/C=C/C=C/C=C(\C)[C@H](OCC3COCCOCCOCCOCCO3)C[C@@H]3CC[C@@H](C)[C@@](O)(O3)C(=O)C(=O)N3CCCC[C@H]3C(=O)O2)CC[C@H]1O (stereo partly drawn) [I-107, (30E,32E,34E,35E,38R,39S,40R,41R,43S,45S,47R,48S,50R,51R,60R)-50, 60-dihydroxy-48-[(1R)-2-[(1S,3R,4R)-4-hydroxy-3-methoxy-cyclohexyl]-1-methyl-ethyl]-51-methoxy-38, 39,40,41,52,53-hexamethyl-47-(1,4,7,10,13-pentaoxacyclopentadec-2-ylmethoxy)-75, 76-dioxa-61-azatricyclohexatriaconta-30,32,34(52),35(53)-tetraene-54,55,56,57,58-pentone] | ≤ 7.00 | YES |
| CO[C@@H]1C[C@H](C[C@@H](C)[C@@H]2CC(=O)[C@H](C)/C=C(\C)[C@@H](O)[C@@H](OC)C(=O)[C@H](C)C[C@H](C)/C=C/C=C/C=C(\C)[C@@H](OCC3COCCOCCOCCOCCO3)C[C@@H]3CC[C@@H](C)[C@@](O)(O3)C(=O)C(=O)N3CCCC[C@H]3C(=O)O2)CC[C@H]1O (stereo partly drawn) [I-108, (30E, 32E,34E,35E,38R,39S,40R,41R,43S,45S,47S,48S,50R,51R,60R)-50, 60-dihydroxy-48-[(1R)-2-[(1S,3R,4R)-4-hydroxy-3-methoxy-cyclohexyl]-1-methyl-ethyl]-51-methoxy-38, 39,40,41,52,53-hexamethyl-47-(1,4,7,10,13-pentaoxacyclopentadec-2-ylmethoxy)-75, 76-dioxa-61-azatricyclohexatriaconta-30, 32,34(52),35(53)-tetraene-54,55,56,57,58-pentone] | 9.00 to 10.00 | YES |
| CO[C@@H]1C[C@H](C[C@@H](C)[C@@H]2CC(=O)[C@H](C)/C=C(\C)[C@@H](O)[C@@H](OC)C(=O)[C@H](C)C[C@H](C)/C=C/C=C/C=C(\C)[C@H](OCC3COCCOCCOCCO3)C[C@@H]3CC[C@@H](C)[C@@](O)(O3)C(=O)C(=O)N3CCCC[C@H]3C(=O)O2)CC[C@H]1O (stereo partly drawn) [I-111, (28E,30E,32E,33E,36R,37S,38R,39R,41S,43S,45R,46S,48R,49R,58R)-48, 58-dihydroxy-46-[(1R)-2-[(1S,3R,4R)-4-hydroxy-3-methoxy-cyclohexyl]-1-methyl-ethyl]-49-methoxy-36, 37,38,39,50,51-hexamethyl-45-(1,4,7,10-tetraoxacyclododec-2-ylmethoxy)-72,73-dioxa-59-azatricyclohexatriaconta-28, 30,32(50),33(51)-tetraene-52,53,54,55,56-pentone] | 8.00 to 9.00 | YES |
| CO[C@@H]1C[C@H](C[C@@H](C)[C@@H]2CC(=O)[C@H](C)/C=C(\C)[C@@H](O)[C@@H](OC)C(=O)[C@H](C)C[C@H](C)/C=C/C=C/C=C(\C)[C@@H](OCC3COCCOCCOCCO3)C[C@@H]3CC[C@@H](C)[C@@](O)(O3)C(=O)C(=O)N3CCCC[C@H]3C(=O)O2)CC[C@H]1O (stereo partly drawn) [I-112, (28E,30E,32E,33E,36R,37S,38R,39R,41S,43S,45S,46S,48R,49R,58R)-48, 58-dihydroxy-46-[(1R)-2-[(1S,3R,4R)-4-hydroxy-3-methoxy-cyclohexyl]-1-methyl-ethyl]-49-methoxy-36, 37,38,39,50,51-hexamethyl-45-(1,4,7,10-tetraoxacyclododec-2-ylmethoxy)-72, 73-dioxa-59-azatricyclohexatriaconta-28,30,32(50),33(51)-tetraene-52, 53,54,55,56-pentone] | 9.00 to 10.00 | YES |
| COCCOCCO[C@@H]1C[C@@H]2CC[C@@H](C)[C@@](O)(O2)C(=O)C(=O)N2CCCC[C@H]2C(=O)O[C@H]([C@H](C)C[C@@H]2CC[C@@H](O)[C@H](OC)C2)CC(=O)[C@H](C)/C=C(\C)[C@@H](O)[C@@H](OC)C(=O)[C@H](C)C[C@H](C)/C=C/C=C/C=C/1C [I-119, (22E,24E,26E,27E,33R,34S,35R,36R,38S,40S,43S,44R,45R,54R)-44,54-dihydroxy-43-[(1R)-2-[(1S, 3R,4R)-4-hydroxy-3-methoxy-cyclohexyl]-1-methyl-ethyl]-45-methoxy-42-[R-2-(2-methoxyethoxy)ethoxy]-33, 34,35,36,46,47-hexamethyl-64,65-dioxa-55-azatricyclohexatriaconta-22, 24,26(46),27(47)-tetraene-48,49,50,51,52-pentone] | > 10.00 | YES |

Further lines, with some results ahead:

| pIC50 [1] | SMILES | mTORC1 selective @ 24 hrs (mTORC1 over mTORC2) |
| --- | --- | --- |
| 8.00 to 9.00 | CO[C@@H]1C[C@H](C[C@@H](C)[C@@H]2CC(=O)[C@H](C)/C=C(\C)[C@@H](O)[C@@H](OC)C(=O)[C@H](C)C[C@H](C)/C=C/C=C/C=C(\C)[C@H](OCCOCCOCCO)C[C@@H]3CC[C@@H](C)[C@@](O)(O3)C(=O)C(=O)N3CCCC[C@H]3C(=O)O2)CC[C@H]1OCCO [I-109, (21E,23E,25E,26E,36R,37S,38R,39R,41S,43S,45R,46S,47R,48R,57R)-47, 57-dihydroxy-45-[2-[2-(2-hydroxyethoxy)ethoxy]ethoxy]-46-[(1R)-2-[(1S,3R, 4R)-4-(2-hydroxyethoxy)-3-methoxy-cyclohexyl]-1-methyl-ethyl]-48-methoxy-36,37,38,39,49,50-hexamethyl-68, 69-dioxa-58-azatricyclohexatriaconta-21,23,25(49),26(50)-tetraene-51,52,53,54,55-pentone] | YES |
| 8.00 to 9.00 | CO[C@@H]1C[C@H](C[C@@H](C)[C@@H]2CC(=O)[C@H](C)/C=C(\C)[C@@H](O)[C@@H](OC)C(=O)[C@H](C)C[C@H](C)/C=C/C=C/C=C(\C)[C@H](OCCOCCOCCOCCO)C[C@@H]3CC[C@@H](C)[C@@](O)(O3)C(=O)C(=O)N3CCCC[C@H]3C(=O)O2)CC[C@H]1OCCO [I-114, (21E,23E,25E,26E,38R,39S,40R,41R,43S,45S,47R,48S,49R,50R,59R)-49, 59-dihydroxy-47-[2-[2-[2-(2-hydroxyethoxy)ethoxy]ethoxy]ethoxy]-48-[(1R)-2-[(1S,3R, 4R)-4-(2-hydroxyethoxy)-3-methoxy-cyclohexyl]-1-methyl-ethyl]-50-methoxy-38,39,40,41,51, 52-hexamethyl-70,71-dioxa-60-azatricyclohexatriaconta-21,23,25(51),26(52)-tetraene-53, 54,55,56,57-pentone] | YES |
| 9.00 to 10.00 | CO[C@@H]1C[C@H](C[C@@H](C)[C@@H]2CC(=O)[C@H](C)/C=C(\C)[C@@H](O)[C@@H](OC)C(=O)[C@H](C)C[C@H](C)/C=C/C=C/C=C(\C)[C@H](OCCOCCO)C[C@@H]3CC[C@@H](C)[C@@](O)(O3)C(=O)C(=O)N3CCCC[C@H]3C(=O)O2)CC[C@H]1OCCO [I-116, (21E,23E,25E,26E,34R,35S,36R,37R,39S,41S,43R,44S,45R,46R,55R)-45, 55-dihydroxy-43-[2-(2-hydroxyethoxy)ethoxy]-44-[(1R)-2-[(1S,3R, 4R)-4-(2-hydroxyethoxy)-3-methoxy-cyclohexyl]-1-methyl-ethyl]-46-methoxy-34,35,36,37,47,48-hexamethyl-66,67-dioxa-56-azatricyclohexatriaconta-21, 23,25(47),26(48)-tetraene-49,50,51,52,53-pentone] | YES |
| > 10.00 | COCCOCCO[C@H]1C[C@@H]2CC[C@@H](C)[C@@](O)(O2)C(=O)C(=O)N2CCCC[C@H]2C(=O)O[C@H]([C@H](C)C[C@@H]2CC[C@@H](O)[C@H](OC)C2)CC(=O)[C@H](C)/C=C(\C)[C@@H](O)[C@@H](OC)C(=O)[C@H](C)C[C@H](C)/C=C/C=C/C=C/1C [I-120, (22E,24E,26E,27E,33R,34S,35R,36R,38S,40S,43S,44R,45R,54R)-44, 54-dihydroxy-43-[(1R)-2-[(1S,3R,4R)-4-hydroxy-3-methoxy-cyclohexyl]-I-methyl-ethyl]-45-methoxy-42-[S-2-(2-methoxyethoxy)ethoxy]-33,34,35,36,46,47-hexamethyl-64,65-dioxa-55-azatricyclohexatriaconta-22, 24,26(46),27(47)-tetraene-48,49,50,51,52-pentone] | YES |
